Test results as given in patent US8227492B2, “Sulfoxamine derivatives as factor Xa inhibitors” (Cadila Healthcare Limited, priority 2007, dated 2012).

Key:
Factor Xa = Factor Xa (Homo sapiens, UniProt P00742); assay: In vitro Factor Xa inhibition, chromogenic assay; type: biochemical; conditions: 0.1 μM compound; for inhibition at 0.1 µM: read-out: % Factor Xa inhibition at 0.1 μM using chromogenic assay
Protocol: (§1) In vitro Factor Xa inhibitory activities were determined as per standard protocols and the results of representative compounds are provided in tables 1 and 2 below as proof of the efficacies of the novel class of compounds disclosed above.

human plasma = assay: Prothrombin time doubling concentration (PTCT2) using human plasma; type: biochemical
Protocol: as §1

Chain of Factor Xa (P00742 235-488 limits assumed): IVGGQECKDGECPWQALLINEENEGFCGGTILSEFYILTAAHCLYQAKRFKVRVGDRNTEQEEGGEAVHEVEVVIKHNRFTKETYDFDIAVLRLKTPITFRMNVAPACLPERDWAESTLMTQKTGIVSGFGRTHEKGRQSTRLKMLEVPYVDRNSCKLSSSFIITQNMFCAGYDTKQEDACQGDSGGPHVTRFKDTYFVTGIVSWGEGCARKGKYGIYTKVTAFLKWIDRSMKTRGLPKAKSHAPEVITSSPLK
Chain of Factor Xa (P00742 41-179 partner limits assumed): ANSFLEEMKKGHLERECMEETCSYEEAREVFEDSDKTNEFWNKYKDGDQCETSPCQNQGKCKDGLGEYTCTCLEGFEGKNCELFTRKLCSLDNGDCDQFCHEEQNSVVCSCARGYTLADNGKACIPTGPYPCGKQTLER

CS(=N)(=O)c1ccccc1-c1ccc(C(=O)Nc2ccc(Cl)cc2C(=O)Nc2ccc(Cl)cn2)cc1 (stereo not drawn) [Example 4, S-(2-[4-(N-{2-[N-(5-chloro-2-pyridyl)carbamoyl]-4-chlorophenyl}carbamoyl)phenyl]-phenyl)-S-methyl sulfoximide]
inhibition at 0.1 µM (Factor Xa): 93%
PTCT2 (Conc. required to double the prothrombin time using human plasma) (human plasma): 4.1 µM

CS(=N)(=O)c1ccc(C(=O)Nc2ccc(Cl)cc2C(=O)Nc2ccc(Cl)cn2)cc1 (stereo not drawn) [Example 1, S-[4-(N-{2-[N-(5-chloro(2-pyridyl))carbamoyl]-4-chlorophenyl}carbamoyl)phenyl]-S-methyl Sulfoximide]
inhibition at 0.1 µM (Factor Xa): 75%

CCN(CC)CC(=O)N=S(C)(=O)c1ccc(C(=O)Nc2ccc(Cl)cc2C(=O)Nc2ccc(Cl)cn2)cc1 (stereo not drawn) [Example 42, S-[4-(N-{2-[N-(5-chloro(2-pyridyl))carbamoyl]-4-chlorophenyl}carbamoyl)phenyl]-S-methyl-N-(2-diethylamino-acetyl)sulfoximide]
inhibition at 0.1 µM (Factor Xa): 70%
PTCT2 (Conc. required to double the prothrombin time using human plasma) (human plasma): 0.7 µM

COc1ccc(NC(=O)c2ccc(S(C)(=O)=NC(=O)CN(C)C)cc2)c(C(=O)Nc2ccc(Cl)cn2)c1 (stereo not drawn) [Example 40, S-[4-(N-{2-[N-(5-chloro(2-pyridyl))carbamoyl]-4-methoxyphenyl}carbamoyl)phenyl]-S-methyl-N-(2-dimethylamino-acetyl)sulfoximide]
inhibition at 0.1 µM (Factor Xa): 56%
PTCT2 (Conc. required to double the prothrombin time using human plasma) (human plasma): 1.2 µM

CS(=O)(=NCCN1CCCC1)c1ccc(C(=O)Nc2ccc(Cl)cc2C(=O)Nc2ccc(Cl)cn2)cc1 (stereo not drawn) [Example 75, S-[4-(N-{2-[N-(5-chloro(2-pyridyl))carbamoyl]-4-chlorophenyl}carbamoyl)phenyl]-S-methyl-N-(2-(pyrrolidin-1-yl)ethyl)sulfoximide]
inhibition at 0.1 µM (Factor Xa): 74%
PTCT2 (Conc. required to double the prothrombin time using human plasma) (human plasma): 0.98 µM

CCN1CCC(C(=O)N=S(C)(=O)c2ccccc2-c2ccc(C(=O)Nc3ccc(Cl)cc3C(=O)Nc3ccc(Cl)cn3)cc2)CC1 (stereo not drawn) [Example 28, S-(2-[4-(N-{2-[N-(5-chloro-2-pyridyl)carbamoyl]-4-chlorophenyl}carbamoyl)phenyl]-phenyl)-S-methyl-N-(1-ethyl-piperidine-4-carbonyl)sulfoximide]
inhibition at 0.1 µM (Factor Xa): 82%

CN(C)CCN=S(C)(=O)c1ccc(C(=O)Nc2ccc(Cl)cc2C(=O)Nc2ccc(Cl)cn2)cc1 (stereo not drawn) [Example 76, S-[4-(N-{2-[N-(5-chloro(2-pyridyl))carbamoyl]-4-chlorophenyl}carbamoyl)phenyl]-S-methyl-N-[2-dimethylamino-ethyl]sulfoximide]
inhibition at 0.1 µM (Factor Xa): 66%
PTCT2 (Conc. required to double the prothrombin time using human plasma) (human plasma): 1.14 µM

CS(=O)(=NC(=O)C1CCNCC1)c1ccccc1-c1ccc(C(=O)Nc2ccc(Cl)cc2C(=O)Nc2ccc(Cl)cn2)cc1 (stereo not drawn) [Example 26, S-(2-[4-(N-{2-[N-(5-chloro-2-pyridyl)carbamoyl]-4-chlorophenyl}carbamoyl)phenyl]-phenyl)-S-methyl-N-(4-piperidinylcarbonyl)sulfoximide]
inhibition at 0.1 µM (Factor Xa): 69%

CS(=O)(=NC(=O)CN1CCCCC1)c1ccccc1-c1ccc(C(=O)Nc2ccc(Cl)cc2C(=O)Nc2ccc(Cl)cn2)cc1 (stereo not drawn) [Example 53, S-(2-[4-(N-{2-[N-(5-chloro-2-pyridyl)carbamoyl]-4-chlorophenyl}carbamoyl)phenyl]-phenyl)-S-methyl-N-[(2-piperidin-1-yl)-acetyl]sulfoximide]
inhibition at 0.1 µM (Factor Xa): 79%

S-(2-[4-(N-{2-[N-(5-chloro-2-pyridyl)carbamoyl]-4-chlorophenyl}carbamoyl)phenyl]-phenyl)-S-methyl-N-[2-(4-aminopiperidinyl)-acetyl]sulfoximide [Example 56]
% Factor Xa inhibition at 0.1 μM using chromogenic assay (Factor Xa): 81%

CN(C)CC(=O)N=S(C)(=O)c1ccccc1-c1ccc(C(=O)Nc2ccc(Cl)cc2C(=O)Nc2ccc(Cl)cn2)cc1 (stereo not drawn) [Example 41, S-(2-[4-(N-{2-[N-(5-chloro-2-pyridyl)carbamoyl]-4-chlorophenyl}carbamoyl)phenyl]-phenyl)-S-methyl-N-(2-dimethylamino-acetyl)sulfoximide]
inhibition at 0.1 µM (Factor Xa): 95%
PTCT2 (Conc. required to double the prothrombin time using human plasma) (human plasma): 1.9 µM

CCN(CC)CC(=O)N=S(C)(=O)c1ccccc1-c1ccc(C(=O)Nc2ccc(Cl)cc2C(=O)Nc2ccc(Cl)cn2)cc1 (stereo not drawn) [Example 43, S-(2-[4-(N-{2-[N-(5-chloro-2-pyridyl)carbamoyl]-4-chlorophenyl}carbamoyl)phenyl]-phenyl)-S-methyl-N-(2-diethylamino-acetyl)sulfoximide]
inhibition at 0.1 µM (Factor Xa): 79%

CS(=O)(=NC(=O)c1ccncc1)c1ccccc1-c1ccc(C(=O)Nc2ccc(Cl)cc2C(=O)Nc2ccc(Cl)cn2)cc1 (stereo not drawn) [Example 24, S-(2-[4-(N-{2-[N-(5-chloro-2-pyridyl)carbamoyl]-4-chlorophenyl}carbamoyl)phenyl]-phenyl)-S-methyl-N-(4-pyridylcarbonyl)sulfoximide]
inhibition at 0.1 µM (Factor Xa): 85%

CCN(CC)CCN=S(C)(=O)c1ccc(C(=O)Nc2ccc(Cl)cc2C(=O)Nc2ccc(Cl)cn2)cc1 (stereo not drawn) [Example 74, S-[4-(N-{2-[N-(5-chloro(2-pyridyl))carbamoyl]-4-chlorophenyl}carbamoyl)phenyl]-S-methyl-N-(2-(diethylamino)ethyl)sulfoximide]
inhibition at 0.1 µM (Factor Xa): 77%
PTCT2 (Conc. required to double the prothrombin time using human plasma) (human plasma): 1.23 µM

CS(=O)(=NC(=O)CN1CCCC1)c1ccc(C(=O)Nc2ccc(Cl)cc2C(=O)Nc2ccc(Cl)cn2)cc1 (stereo not drawn) [Example 50, S-[4-(N-{2-[N-(5-chloro(2-pyridyl))carbamoyl]-4-chlorophenyl}carbamoyl)phenyl]-S-methyl-N-[(2-pyrrolidin-1-yl)-acetyl]sulfoximide]
inhibition at 0.1 µM (Factor Xa): 64%
PTCT2 (Conc. required to double the prothrombin time using human plasma) (human plasma): 0.68 µM

CS(=O)(=O)N=S(C)(=O)c1ccccc1-c1ccc(C(=O)Nc2ccc(Cl)cc2C(=O)Nc2ccc(Cl)cn2)cc1 (stereo not drawn) [Example 14, S-(2-[4-(N-{2-[N-(5-chloro-2-pyridyl)carbamoyl]-4-chlorophenyl}carbamoyl)phenyl]-phenyl)-S-methyl-N-methanesulfonyl sulfoximide]
inhibition at 0.1 µM (Factor Xa): 84%

COc1cc(Cl)cc(C(=O)Nc2ccc(Cl)cn2)c1NC(=O)c1ccc(-c2ccccc2S(C)(=N)=O)cc1 (stereo not drawn) [Example 5, S-(2-[4-(N-{2-[N-(5-chloro-2-pyridyl)carbamoyl]-4-chloro-6-methoxyphenyl}carbamoyl)phenyl]-phenyl)-S-methyl Sulfoximide]
inhibition at 0.1 µM (Factor Xa): 95%
PTCT2 (Conc. required to double the prothrombin time using human plasma) (human plasma): 0.69 µM

CS(=O)(=NC(=O)CN1CCCCC1)c1ccc(C(=O)Nc2ccc(Cl)cc2C(=O)Nc2ccc(Cl)cn2)cc1 (stereo not drawn) [Example 52, S-[4-(N-{2-[N-(5-chloro(2-pyridyl))carbamoyl]-4-chlorophenyl}carbamoyl)phenyl]-S-methyl-N-[(2-piperidin-1-yl)-acetyl]sulfoximide]
inhibition at 0.1 µM (Factor Xa): 60%
